Experimental data taken from patent publication US20230067015A1, “SYSTEMS AND METHODS FOR ANTIBACTERIAL SUSCEPTIBILITY TESTING USING DYNAMIC LASER SPECKLE IMAGING” (The Penn State Research Foundation, priority 2020, published 2023).
Values after ≈ are worked out from the molar mass of the structure shown. Like-named read-outs stand apart in the source and are kept apart here.

Experiments:
E. coli K-12 [1] = experiment: Broth microdilution MIC (CLSI), confirmed by time-kill kinetics; assay type: cell-based, Escherichia coli; details: E. coli K-12, gold standard overnight methods
Protocol: (§1) Escherichia coli (E. coli) strain K-12 was used as a model bacterial strain in all experiments with ampicillin, gentamicin, and ceftriaxone. Multi-drug resistant (MDR) E. coli strain PS00278A (porcine isolate) was tested with ampicillin and gentamicin to contrast with the susceptible model bacterial strain. Staphylococcus aureus (S. aureus) strain PS00975A (human clinical isolate) was used with ampicillin to evaluate the methods' performance on a Gram-positive microorganism. Cultures were stored as a frozen stocks at −80° C. and resuscitated every 14 days to maintain a fresh inoculum. The culture was resuscitated by streaking onto Muller Hinton Agar (MHA) and was then incubated at 37° C. 20+/−2 h. A single colony from the MHA agar was re-streaked on a fresh MHA plate and incubated at 37° C. 20+/−2 h. A single colony from the MHA sub-streak plate was inoculated into 10 mL Muller Hinton Broth (MHB) and incubated at 37° C., shaking at 210 rpm, for 20+/−2 h. The overnight culture was diluted in MHB based on the OD600 to obtain 5×10^5 CFU/mL using a BioPhotometer D30 (Eppendorf, Hauppauge, N.Y.). An OD600 of 1 was considered to be equal to 8×10^8 CFU/mL, based on an E. coli OD600-CFU/ml standard curve.
(§2) The 5×10^5 CFU/mL culture was used for broth microdilution and speckle imaging. […] The CLSI guideline M100 ED30:2020 was used to define clinical resistance based on determined MICs. […] MIC was determined by visually inspecting wells for turbidity resulting from culture growth.
Broth macrodilution was used to determine the time-kill kinetics of all strains, Culture in concentration of 5×10^5 CFU/mL was first grown for 1 hour at 37° C. in a shaking condition (210 rpm) and was then exposed to antibiotic concentrations of 0×MIC (control), 1×MIC, and 2×MIC that were previously determined via broth microdilution. Viable cells were quantified at times 0, 1, 2, 3, 5, 8, 16, and 24 hours by spiral plating (easySpiral, Interscience) 10-fold dilutions onto MHB agar. Inoculated plates were incubated at 37° C. for 16-20 hours and counted to determine the CFU/mL at each time point. […]

MDR E. coli PS00278A [2] = experiment: Broth microdilution MIC (CLSI); assay type: cell-based, Escherichia coli
Protocol: as §1, with “An OD600 of 1 was considered to be equal to 8×10^8 CFU/mL, based on an E. coli OD600-CFU/ml standard curve.” left out
as §2

E. coli K-12 [3] = experiment: Average intensity of raw dynamic laser speckle images; assay type: cell-based; details: Escherichia coli, K12; E. coli K-12, simple intensity measurement (false positive vs overnight MIC); read-out: MIC determined from speckle intensity data
Protocol: A helium-neon laser (wavelength: 632.8 nm, power: 0.8 mW, HNLS008L, Thorlabs Inc., USA) was used as an illumination source. The laser beam was slightly expanded by using a concave lens (focal length=−25.0 mm) before illuminating a cuvette (Fisherbrand, CAS#14-955-129) containing 3 mL of bacterial suspension. The resultant speckle pattern was captured by a CMOS camera (Zyla, ANDOR), interfaced to a computer. Note that other methods, such as an inverse telescope beam expander, can also be used to increase the incident laser beam size. Our choice of a diverging lens is due to its simplicity and compactness as well as the fact that an explicit physical model is not needed for the machine learning based analysis, which relaxes the requirement of a plane-wave incident beam as commonly used in dynamic light scattering. […]
The OD data and the average intensity values obtained from raw speckle patterns (examples shown in FIG. 2) are shown in FIG. 3A-B and FIG. 3C-D for ampicillin and gentamicin, respectively. […] While the OD values for different antibiotic concentrations are below the detection limit of the OD reading even after 120 min, the average speckle intensity values are distinguishable in 90 min. […]

E. coli K-12 [4] = experiment: DyRAST: ANN pixel-level prediction on DLSI data with voting; assay type: cell-based, Escherichia coli; details: 2×MIC
Protocol: For DLSI-based AST, the culture grown as outlined above was adjusted to 5×10^5 CFU/mL and was further incubated at 37° C., 210 rpm for 1 h to reach the logarithmic growth phase before an antibiotic was added to the culture in concentrations equal to 0×MIC (control), 0.5×MIC, 1×MIC, and 2×MIC. Three mL of each culture were collected at each time point, ti (i=0, 1, . . . , 4) at 0, 30 min, 60 min, 90 min, and 120 min, respectively, and transferred into the cuvette used for DLSI in the imaging system described above. At each ti, a dynamic speckle patterns series (16 bits, 1000×2000 pixels, 50 frames per second) was collected. The exposure time for each frame was 1 msec (millisecond) and the full capture period was 10 sec at each time point, ti. All experiments were conducted in independent triplicates.
The raw images (1000×2000) were first resized (100×200) using the nearest neighbor method to reduce the computational cost. The camera has a pixel size of 6.5 μm, corresponding to a 6.5 mm×13 mm detection area. Fourier Transform (FT) was performed along the time axis of the measured data cube. […]
The experimental replicates are pooled, processed together, and then divided randomly into training, validation, and test groups. […] Binary classification for the “Inhibited” and “Non-Inhibited” bacteria groups was determined with the input from frequency domain for each pixel. […]

MDR E. coli PS00278A [5] = details: CLSI guideline M100 ED30:2020, tested on MDR E. coli; cited from earlier work
[6] = Escherichia coli, K12, read-out: MIC

Compound | MIC (E. coli K-12 [1]; [6]) [µg/mL] | MIC (MDR E. coli PS00278A [2]; Escherichia coli, read-out: MIC) [µg/mL] | MIC (E. coli K-12 [3]) [µg/mL] | predicted percentage of classification as "Inhibited" (E. coli K-12 [4]; 30 min) [%] | predicted percentage of classification as "Inhibited" (votes) (E. coli K-12 [4]; 60 min) | intermediate breakpoint concentration (clinical resistance diagnosis breakpoint) (MDR E. coli PS00278A [5]) [µg/mL] | MIC (E. coli K-12 [1]) [µg/mL] | MIC (MDR E. coli PS00278A [2]) [µg/mL]
CC1(C)S[C@@H]2[C@H](NC(=O)[C@H](N)c3ccccc3)C(=O)N2[C@H]1C(=O)O [ampicillin, Ampicillin] | 4 (≈ 11.4 µM) | 2000 (≈ 5720 µM) | 2 (≈ 5.72 µM) | ~50 | more than 80% | 16 | – | –
CO/N=C(\C(=O)N[C@@H]1C(=O)N2C(C(=O)O)=C(CSc3nc(=O)c(=O)[nH]n3C)CS[C@H]12)c1csc(N)n1 [ceftriaxone] | 0.0625 (≈ 0.113 µM) | – | – | – | – | – | – | –
gentamicin | – | – | – | – | – | 8 | 2 | 128
